The source of these data is US11959122B2.

Series [1] concerns microbial flora in the target watershed. To be noted: determined by EUCAST database; unit assumed; cited from earlier work.
For series [2] the test system is unchanged. Kind of series: minimum inhibitory concentration (MIC) by EUCAST database and drug resistance prediction invalid concentration PNECr. The following applies: PNECR=MIC/AF, AF 10.
Text: Minimum inhibitory concentration (MIC) of some antibiotics and drug resistance prediction invalid concentration (PNECr) of microbes
The test system of series [3] is microbial flora in the target watershed (environmental microbes, resistant genes). To be noted: logistic model fitting of S against concentration; target solution DNA.
For series [4] the following is noted: buffer; cited from earlier work.

For `O=C1CN(/N=C/c2ccc([N+](=O)[O-])o2)C(=O)N1` [Furantoin], the Observed MIC in series [1] was 4000 µg/mL. Also, the PNECr in series [2] is 400.
Turning to `CC1(C)S[C@@H]2[C@H](/N=C/N3CCCCCC3)C(=O)N2[C@H]1C(=O)O` [Messilinan], in series [1], the Observed MIC is 64 µg/mL. The PNECr in series [2] is reported as 6.4.
Consider `CN(C)[C@@H]1C(O)=C(C(N)=O)C(=O)[C@@]2(O)C(O)=C3C(=O)c4c(O)cccc4[C@@](C)(O)[C@H]3[C@H](O)[C@@H]12` [Oxytetracycline], for which the Observed MIC in series [1] is 125 µg/mL. Besides, the PNECr in series [2] is reported as 12.5.
As to `CN(C)[C@@H]1C(O)=C(C(N)=O)C(=O)[C@@]2(O)C(O)=C3C(=O)c4c(O)cccc4[C@@](C)(O)[C@H]3C[C@@H]12` [Tetracycline], in series [3], the “MSC value (antibiotic concentration at S=0)” value was about 11.39 µg/L.
For `CS(=O)(=O)c1ccc([C@@H](O)[C@@H](CO)NC(=O)C(Cl)Cl)cc1` [Thiamphenicol], the Observed MIC in series [1] was 500 µg/mL. Moreover, the PNECr in series [2] is given as 50.
Regarding `CC1(C)S[C@@H]2[C@H](NC(=O)[C@H](C(=O)O)c3ccsc3)C(=O)N2[C@H]1C(=O)O` [Ticarcillin], in series [1], the Observed MIC was 250 µg/mL. Moreover, the PNECr in series [2] is listed as 25.
Consider `N[C@@H]1[C@H]2CN(c3nc4c(cc3F)c(=O)c(C(=O)O)cn4-c3ccc(F)cc3F)C[C@@H]12` [Travafloxacin], for which the Observed MIC in series [1] was 8 µg/mL. Further, the PNECr in series [2] was 0.8.
In the case of `CC[C@H]1OC(=O)C[C@@H](O)[C@H](C)[C@@H](O[C@@H]2O[C@H](C)[C@@H](O[C@H]3C[C@@](C)(O)[C@@H](O)[C@H](C)O3)[C@H](N(C)C)[C@H]2O)[C@@H](CC=O)C[C@@H](C)C(=O)/C=C/C(C)=C/[C@@H]1CO[C@@H]1O[C@H](C)[C@@H](O)[C@@H](OC)[C@H]1OC` [Tylosin], the Observed MIC in series [1] was 2000 µg/mL. Besides, in series [2], the PNECr was 200.
As to Bacitracin, in series [1], the Observed MIC is 2000 µg/mL. Moreover, the PNECr in series [2] is given as 200.
On to Capreomycin, for which the Observed MIC in series [1] is 1000 µg/mL. Also, the PNECr in series [2] was 100.
Consider Cefadroxil, for which the Observed MIC in series [1] was 125 µg/mL. In addition, the PNECr in series [2] is given as 12.5.
Consider Cefalexin, for which, in series [1], the Observed MIC is 250 µg/mL. For the same compound, in series [2], the PNECr was 25.
With Chloramphenicol, in series [1], the Observed MIC is 125 µg/mL. Also, the PNECr in series [2] is given as 12.5.
Regarding Colistin, the Observed MIC in series [1] was 64 µg/mL. For the same compound, the PNECr in series [2] is listed as 6.4.
For Dehydrated erythromycin, the “t1/2” value in series [4] was 365 days.
With Ethambutol, in series [1], the Observed MIC is 1000 µg/mL. Besides, the PNECr in series [2] was 100.
Turning to FLORFENICOL, the Observed MIC in series [1] is 125 µg/mL. Further, the PNECr in series [2] is 12.5.
As to Fosfomycin, the Observed MIC in series [1] is 125 µg/mL. Moreover, the PNECr in series [2] is listed as 12.5.
In the case of Fusiform acid, in series [1], the Observed MIC is 32 µg/mL. In series [2], the PNECr is recorded as 3.2.
Gentamicin: the Observed MIC in series [1] was 16 µg/mL. Also, the PNECr in series [2] is given as 1.6.
Regarding Kanamycin, the Observed MIC in series [1] was 125 µg/mL. In series [2], the PNECr is recorded as 12.5.
With Lincomycin, the Observed MIC in series [1] was 500 µg/mL. In addition, the PNECr in series [2] is 50.
Turning to Linezolid, the Observed MIC in series [1] is 125 µg/mL. In addition, the PNECr in series [2] was 12.5.
Turning to Lolakabiv, in series [1], the Observed MIC is 125 µg/mL. In series [2], the PNECr is reported as 12.5.
In the case of Mikafenjin, the Observed MIC in series [1] is 4 µg/mL. For the same compound, the PNECr in series [2] is 0.4.
For the compound Nalidixic acid, the Observed MIC in series [1] is 500 µg/mL. Besides, the PNECr in series [2] is 50.
Consider Narasin, for which the Observed MIC in series [1] was 125 µg/mL. For the same compound, the PNECr in series [2] was 12.5.
Turning to Neomycin, the Observed MIC in series [1] was 125 µg/mL. In addition, the PNECr in series [2] is on record as 12.5.
For Pefloxacin, the Observed MIC in series [1] is 4000 µg/mL. In series [2], the PNECr is recorded as 400.
As to Penicillin, the Observed MIC in series [1] was 4 µg/mL. Further, the PNECr in series [2] is given as 0.4.
In the case of Quinupustine, the Observed MIC in series [1] is 4 µg/mL. Besides, in series [2], the PNECr is 0.4.
With Sparfloxacin, in series [1], the Observed MIC is 500 µg/mL. Moreover, the PNECr in series [2] is listed as 50.
Spiramycin: in series [1], the Observed MIC is 2000 µg/mL. In addition, the PNECr in series [2] was 200.
As to Streptomycin, the Observed MIC in series [1] is 125 µg/mL. Also, in series [2], the PNECr is given as 12.5.
For Sulbactam sodium, in series [1], the Observed MIC was 250 µg/mL. Besides, the PNECr in series [2] is listed as 25.
Regarding Sulfamethoxazole, the Observed MIC in series [1] is 1000 µg/mL. For the same compound, in series [2], the PNECr is 100.
For Teicoplanin, the Observed MIC in series [1] is 1000 µg/mL. Also, the PNECr in series [2] is 100.
As for Tiamulin, the Observed MIC in series [1] is 500 µg/mL. Also, the PNECr in series [2] is listed as 50.
Take Tilmicosin: in series [1], the Observed MIC was 250 µg/mL. In addition, the PNECr in series [2] is reported as 25.
Take Vancomycin: the Observed MIC in series [1] was 125 µg/mL. Also, the PNECr in series [2] is listed as 12.5.
Regarding Viomycin, in series [1], the Observed MIC was 1000 µg/mL. In series [2], the PNECr was 100.
Virginiamycin: in series [1], the Observed MIC is 250 µg/mL. The PNECr in series [2] is 25.
